Laboratory results published in patent US9933367B2, “Method to identify and isolate pluripotent stem cells using endogenous blue fluorescence” (NATIONAL CENTRE FOR BIOLOGICAL SCIENCES, priority 2012, dated 2018).
“Also recorded” adds a separate entry of the source.

Experiments:
HuES cells = HuES cells in retinol-free E8 media supplemented with retinol; fluorescent lipid bodies; type: cell-based, human; settings: HuES cells cultured in E8 media (lacks retinol), retinol 10 μM added
Protocol: HuES cells cultured in E8 media show a rapid decrease in lipid bodies along with associated fluorescence in 24 hours, and the lipid bodies are completely absent by 72 hours (FIG. 10). […] A possible reason could be the differential expression of proteins involved in retinoid uptake and metabolism between the two states/cell types.

HPSCs = assay: Supplementing HPSC culture media with retinyl palmitate or retinol; blue fluorescence of lipid bodies; type: cell-based, human
Source text: All non-confocal epifluorescence images are obtained with a Nikon Eclipse TE2000-E-PFS (Japan) microscope with a Photometrix Cascade II 512 EM-CCD camera (Roper Scientific, USA) and Image Pro-Plus AMS software (Media Cybernetics, USA). The Nikon objectives used are 60×/NA1.4 oil immersions and 10×/NA 0.3 for all experiments. Fluorescence is visualized using band pass filters (Chroma Technology, USA). The filters used are Blue (Exciter—350 nm/50, Dichoric—400 nm long pass, Emitter—460 nm/50), Green (Exciter—500 nm/20, Dichoric—535 nm/30, Emitter—515 long pass) and Red (Exciter—450 nm/30, Dichoric—620 nm/0, Emitter—570 long pass). Confocal images are acquired using a Zeiss LSM 510 Meta Confocal set up with a 63× objective and a 405 laser (excitation—405 nm, emission—about 420 nm to about 490 nm). […] For quantitative analysis and depiction of images for direct comparison, for e.g. between mouse ES cells and human ES cells, all the images presented have the same intensity scale bounded by the adjusted maximum value of the HuES cell image. Scatter plot and linear fit analyses of pluripotency marker expression (OCT4, SOX2 and Nanog) and blue fluorescence is performed with fluorescence intensity values of individual pixels using the ‘plot profile’ application from ImageJ. […] The increase in fluorescence intensities is also found to be confined to the lipid bodies.

[1] = test system: mouse embryonic stem cells; assay: Mouse ES cells grown in media with additional retinol; blue fluorescence and lipid bodies; type: cell-based; settings: 20% KOSR media with retinol, 48 hours
Source text: The increase in fluorescence intensities is also found to be confined to the lipid bodies.

| SMILES | fluorescent lipid bodies after addition to E8 cultures (HuES cells) | blue fluorescence in the HPSCs emanating from the lipid bodies (HPSCs; culture media supplemented with retinol) | retinoid-associated (blue) fluorescence [1] | mean blue fluorescence intensity in the lipid bodies (HPSCs; HPSCs on MEF feeder cells, typical media with 20% KOSR, supplemented at 2-10 μM, after 24 hours) |
| --- | --- | --- | --- | --- |
| CC1=C(/C=C/C(C)=C/C=C/C(C)=C/CO)C(C)(C)CCC1 [retinol] | re-appearance of fluorescent lipid bodies; also recorded: regain blue fluorescent lipid bodies in 48 hours | dose-dependent increase | practically no increase; also recorded: do not show any increase in blue fluorescence | – |
| CCCCCCCCCCCCCCCC(=O)OC/C=C(C)/C=C/C=C(C)/C=C/C1=C(C)CCCC1(C)C [retinyl palmitate] | – | – | – | dose-dependent saturable increase; also recorded: dose dependent increase in blue fluorescence |
